What was measured:
GALAP (Galium aparine) = test: Postemergence herbicidal evaluation; assay type: in vivo
Method in brief: (§1)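 Visual 0–9 injury scores versus control plants, covering stand, vigour, malformation, size, chlorosis and general appearance, taken four to five weeks post-spray and averaged over replicate tests. Plants were sprayed at roughly two weeks old and held on greenhouse benches.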

ORYSAT (Rice, Tebonnet) = test: Flooded paddy, post-transplant rice tolerance; assay type: in vivo, Oryza sativa, (L.) Tebonnet; settings: flooded paddy, post-transplant rice, rated 3-4 weeks after treatment, 0-9 rating scale
Method in brief: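 Two ten-day-old seedlings were transplanted into silt loam, flooded and held at 1.5 to 3 cm water above the soil before herbicide treatment. Pots stayed in the greenhouse at that water level. Injury was scored visually on a 0-9 scale versus untreated control.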

ZEAMX (Corn, Field) = test: Preemergence herbicidal evaluation; assay type: in vivo, Zea mays, L.; settings: preemergence, rated 4-5 weeks after treatment
[1] = test system: IPOHE (Ipomoea hederacea); test: Preemergence herbicidal evaluation; assay type: in vivo, (L.) Jacq.; settings: preemergence, rated 4-5 weeks after treatment
CYPIR (Cyperus iria) = test: Flooded paddy, preemergence weed control; assay type: in vivo; settings: rated 3-4 weeks after treatment, 0-9 rating scale
Method in brief: (§2)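 In this preemergence paddy assay, weed seeds or organs are sown at up to 0.5 cm in silt loam and covered by 1.5–3 cm of water for the full test period. After treatment the pots are kept in a greenhouse, and herbicidal effect is rated 0-9 visually against a control.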

[2] = test system: CHEAL (Chenopodium album); test: Postemergence herbicidal evaluation; assay type: in vivo, L.
Method in brief: as §1

[3] = test system: AMBEL (Ambrosia artemisifolia); test: Postemergence herbicidal evaluation; assay type: in vivo, L.
Method in brief: as §1

[4] = test system: CASOB (Cassia obtusifolia); test: Postemergence herbicidal evaluation; assay type: in vivo, L.
Method in brief: as §1

[5] = test system: SAGPY (Sagittaria pygmaea); test: Flooded paddy, preemergence weed control; assay type: in vivo, L.; settings: rated 3-4 weeks after treatment, 0-9 rating scale
Method in brief: as §2

[6] = test system: ABUTH (Abutilon theophrasti); test: Postemergence herbicidal evaluation; assay type: in vivo, Medic.
Method in brief: as §1

[7] = test system: GLXMAW (Soybean, Williams); test: Preemergence herbicidal evaluation; assay type: in vivo, Glycine max, (L.) Merr. cv Williams; settings: preemergence, rated 4-5 weeks after treatment

SMILES | Postemergence herbicidal rating, GALAP (GALAP (Galium aparine); rate 0.0320 kg/ha) | Postemergence herbicidal rating, GALAP (GALAP (Galium aparine); rate 0.0620 kg/ha) | herbicidal rating, ORYSAT (rice tolerance) (ORYSAT (Rice, Tebonnet); rate 0.0320 kg/ha) | ZEAMX preemergence herbicidal rating (ZEAMX (Corn, Field); Rate 0.0620 kg/ha) | ZEAMX preemergence herbicidal rating (ZEAMX (Corn, Field); Rate 0.1250 kg/ha) | ZEAMX preemergence herbicidal rating (ZEAMX (Corn, Field); Rate 0.2500 kg/ha) | IPOHE preemergence herbicidal rating ([1]; Rate 0.0620 kg/ha) | IPOHE preemergence herbicidal rating ([1]; Rate 0.1250 kg/ha) | IPOHE preemergence herbicidal rating ([1]; Rate 0.2500 kg/ha) | herbicidal rating, CYPIR (CYPIR (Cyperus iria); rate 0.0320 kg/ha) | herbicidal rating, CYPIR (CYPIR (Cyperus iria); rate 0.1250 kg/ha) | Postemergence herbicidal rating, CHEAL ([2]; rate 0.0320 kg/ha) | Postemergence herbicidal rating, CHEAL ([2]; rate 0.0620 kg/ha) | Postemergence herbicidal rating, AMBEL ([3]; rate 0.0320 kg/ha) | Postemergence herbicidal rating, AMBEL ([3]; rate 0.0620 kg/ha) | Postemergence herbicidal rating, CASOB ([4]; rate 0.0320 kg/ha) | Postemergence herbicidal rating, CASOB ([4]; rate 0.0620 kg/ha) | herbicidal rating, SAGPY ([5]; rate 0.0320 kg/ha) | herbicidal rating, SAGPY ([5]; rate 0.1250 kg/ha) | Postemergence herbicidal rating, ABUTH ([6]; rate 0.0320 kg/ha) | other results
Cc1nnc(-c2nsc3ccc(-n4c(=O)cc(C(F)(F)F)n(C)c4=O)cc23)s1 [Compound 17, 1-methyl-3-[3-(5-methyl-1,3,4-thiadiazol-2-yl)-1,2-benzisothiazol-5-yl]-6-(trifluoromethyl)uracil] | 1.0 | 1.0 | 2.5 | 6.0 | 7.0 | 8.0 | 0.0 | 2.0 | 9.0 | 3.5 | 7.0 | 3.0 | 3.0 | 4.0 | 9.0 | 0.0 | 0.0 | 2.5 | 5.5 | 9.0 | Postemergence herbicidal rating, GALAP (GALAP (Galium aparine); rate 0.1250 kg/ha): 6.0; Postemergence herbicidal rating, GALAP (GALAP (Galium aparine); rate 0.2500 kg/ha): 6.0; herbicidal rating, ORYSAT (rice tolerance) (ORYSAT (Rice, Tebonnet); rate 0.0080 kg/ha): 0.0; herbicidal rating, ORYSAT (rice tolerance) (ORYSAT (Rice, Tebonnet); rate 0.1250 kg/ha): 4.5; herbicidal rating, CYPIR (CYPIR (Cyperus iria); rate 0.0080 kg/ha): 0.0; Postemergence herbicidal rating, CHEAL ([2]; rate 0.1250 kg/ha): 4.0; Postemergence herbicidal rating, CHEAL ([2]; rate 0.2500 kg/ha): 9.0; Postemergence herbicidal rating, AMBEL ([3]; rate 0.1250 kg/ha): 9.0; Postemergence herbicidal rating, AMBEL ([3]; rate 0.2500 kg/ha): 9.0; Postemergence herbicidal rating, CASOB ([4]; rate 0.1250 kg/ha): 2.0; Postemergence herbicidal rating, CASOB ([4]; rate 0.2500 kg/ha): 2.0; herbicidal rating, SAGPY ([5]; rate 0.0080 kg/ha): 0.0; Postemergence herbicidal rating, ABUTH ([6]; rate 0.0620 kg/ha): 9.0; Postemergence herbicidal rating, ABUTH ([6]; rate 0.1250 kg/ha): 9.0; Postemergence herbicidal rating, ABUTH ([6]; rate 0.2500 kg/ha): 9.0; GLXMAW preemergence herbicidal rating ([7]; Rate 0.0620 kg/ha): 0.0; GLXMAW preemergence herbicidal rating ([7]; Rate 0.1250 kg/ha): 3.0; GLXMAW preemergence herbicidal rating ([7]; Rate 0.2500 kg/ha): 5.0
CN(C(=O)c1nsc2ccc(-n3c(=O)cc(C(F)(F)F)n(C)c3=O)cc12)c1ccc(Cl)cc1 [Compound 18, 1,2-benzisothiazole-3-carboxanilide, 4′-chloro-5-[3,6-dihydro-3-methyl-2,6-dioxo-4-(trifluoromethyl)-1(2H)-pyrimidinyl]-N-methyl-] | 2.0 | 4.0 | 1.5 | 7.0 | 8.0 | 8.0 | 3.0 | 9.0 | 9.0 | 6.5 | 7.5 | 7.0 | 7.0 | 2.0 | 9.0 | 0.0 | 1.0 | 1.5 | 5.0 | 9.0 | Postemergence herbicidal rating, GALAP (GALAP (Galium aparine); rate 0.1250 kg/ha): 6.0; Postemergence herbicidal rating, GALAP (GALAP (Galium aparine); rate 0.2500 kg/ha): 9.0; herbicidal rating, ORYSAT (rice tolerance) (ORYSAT (Rice, Tebonnet); rate 0.0080 kg/ha): 0.0; herbicidal rating, ORYSAT (rice tolerance) (ORYSAT (Rice, Tebonnet); rate 0.1250 kg/ha): 5.0; herbicidal rating, CYPIR (CYPIR (Cyperus iria); rate 0.0080 kg/ha): 0.0; Postemergence herbicidal rating, CHEAL ([2]; rate 0.1250 kg/ha): 7.0; Postemergence herbicidal rating, CHEAL ([2]; rate 0.2500 kg/ha): 9.0; Postemergence herbicidal rating, AMBEL ([3]; rate 0.1250 kg/ha): 9.0; Postemergence herbicidal rating, AMBEL ([3]; rate 0.2500 kg/ha): 9.0; Postemergence herbicidal rating, CASOB ([4]; rate 0.1250 kg/ha): 2.0; Postemergence herbicidal rating, CASOB ([4]; rate 0.2500 kg/ha): 6.0; herbicidal rating, SAGPY ([5]; rate 0.0080 kg/ha): 0.0; Postemergence herbicidal rating, ABUTH ([6]; rate 0.0620 kg/ha): 9.0; Postemergence herbicidal rating, ABUTH ([6]; rate 0.1250 kg/ha): 9.0; Postemergence herbicidal rating, ABUTH ([6]; rate 0.2500 kg/ha): 9.0; GLXMAW preemergence herbicidal rating ([7]; Rate 0.0620 kg/ha): 0.0; GLXMAW preemergence herbicidal rating ([7]; Rate 0.1250 kg/ha): 4.0; GLXMAW preemergence herbicidal rating ([7]; Rate 0.2500 kg/ha): 5.0
Cc1cccnc1-c1nsc2ccc(-n3c(=O)cc(C(F)(F)F)n(C)c3=O)cc12 [Compound 19, 1-methyl-3-[3-(3-methyl-2-pyridyl)-1,2-benzisothiazol-5-yl]-6-(trifluoromethyl)uracil] | 3.5 | 6.0 | 6.5 | 7.0 | 7.0 | 7.7 | 9.0 | 8.7 | 9.0 | 5.0 | 9.0 | 8.0 | 9.0 | 9.0 | 9.0 | 1.5 | 5.0 | 2.5 | 7.0 | 9.0 | herbicidal rating, ORYSAT (rice tolerance) (ORYSAT (Rice, Tebonnet); rate 0.0080 kg/ha): 2.0; herbicidal rating, ORYSAT (rice tolerance) (ORYSAT (Rice, Tebonnet); rate 0.1250 kg/ha): 8.0; herbicidal rating, CYPIR (CYPIR (Cyperus iria); rate 0.0080 kg/ha): 0.0; herbicidal rating, SAGPY ([5]; rate 0.0080 kg/ha): 0.0; Postemergence herbicidal rating, ABUTH ([6]; rate 0.0620 kg/ha): 9.0; GLXMAW preemergence herbicidal rating ([7]; Rate 0.0620 kg/ha): 6.3; GLXMAW preemergence herbicidal rating ([7]; Rate 0.1250 kg/ha): 6.7; GLXMAW preemergence herbicidal rating ([7]; Rate 0.2500 kg/ha): 7.7
Cn1c(C(F)(F)F)cc(=O)n(-c2ccc3snc(C4SCCS4)c3c2)c1=O [Compound 24, 3-[3-(1,3-dithiolan-2-yl)-1,2-benzisothiazol-5-yl]-1-methyl-6-(trifluoromethyl)uracil] | 3.0 | 4.0 | 0.0 | 0.0 | 1.0 | 3.0 | 2.0 | 6.5 | 7.0 | 0.0 | 5.0 | 9.0 | 9.0 | 9.0 | 9.0 | 3.0 | 9.0 | 0.0 | 5.0 | 9.0 | Postemergence herbicidal rating, ABUTH ([6]; rate 0.0620 kg/ha): 9.0; GLXMAW preemergence herbicidal rating ([7]; Rate 0.0620 kg/ha): 2.0; GLXMAW preemergence herbicidal rating ([7]; Rate 0.1250 kg/ha): 2.5; GLXMAW preemergence herbicidal rating ([7]; Rate 0.2500 kg/ha): 4.0
